Legend:
[1] = Hygroscopicity test at room temperature/95% RH in an open system; type: physicochemical
[2] = Stress study at 40° C./75% RH in closed system (appearance, HPLC)

SMILES | hygroscopicity compared with D-cycloserine and the carboxylic acids alone [1] | water absorbed at the 30th day ([1]; FIG. 41) [%] | water absorbed at the 30th day ([1]; FIG. 42) [%] | water absorbed at the 60th day ([1]; FIG. 40) [%] | other results
N[C@@H]1CONC1=O.O=C(O)/C=C\C(=O)O [D-cycloserine maleate (1:1) salt form, D-cycloserine maleate] | much less hygroscopic | 1.3 | – | – | –
N[C@@H]1CONC1=O [D-cycloserine from Strides Shasun Ltd., D-cycloserine] | – | 41.9 | 42.7 | 59.2 | –
N[C@@H]1CONC1=O.N[C@@H]1CONC1=O.O=C(O)C(O)C(O)C(=O)O [D-cycloserine D-tartrate] | much less hygroscopic | – | 1.3 | – | hygroscopicity (in words) ([1]; 30 days, FIG. 42): not hygroscopic
N[C@@H]1CONC1=O [D-cycloserine] | – | 41.3 | 43.3 | 62.5 | appearance after one month stress study ([2]; 40° C./75% RH, one month): disintegrated and turned into dark yellow
O=C(O)/C=C\C(=O)O [Maleic acid, maleic acid] | – | 100.4 | – | – | –
O=C(O)[C@@H](O)[C@H](O)C(=O)O [D-tartaric acid] | – | – | 177.0 | – | stability by HPLC after stress study ([2]; 40/75% RH, 30 days, FIG. 39): stable
N[C@@H]1CONC1=O.O=C(O)C(O)C(O)C(=O)O [D-cycloserine L-tartrate] | much less hygroscopic | – | – | 18.9 | hygroscopicity (in words) ([1]; 30 days, FIG. 41): not hygroscopic; hygroscopicity (in words) ([1]; 60 days, FIG. 40): not hygroscopic
O=C(O)[C@H](O)[C@@H](O)C(=O)O [L-tartaric acid] | – | – | – | 244.6 | –
